The values that follow come from patent publication US4694008A, “Chemical compounds” (Smith Kline & French Laboratories Limited, priority 1984, dated 1987).

Assay [1] deals with T1, histamine H2 -receptors (Rattus norvegicus, UniProt P25102).
T1 construct: histamine-stimulated secretion of gastric acid from the lumen-perfused stomachs of rats anaesthetised with urethane; from tissue; host or cells: stomach of the anaesthetised rat (in vivo, lumen-perfused)
The assay is described as follows: inhibition of histamine-stimulated secretion of gastric acid, lumen-perfused stomachs of rats anaesthetised with urethane. Particulars: iv, read-out: ED50 values in the lumen-perfused rat test. The format is in vivo. The source says: These are actions of histamine which, according to Ash and Schild, Brit. J. Pharmac. Chemother. 27 247 (1966), are not mediated by histamine H1 -receptors.
(§1) The measurement of inhibition of histamine-stimulated secretion of gastric acid from the lumen-perfused stomachs of rats anaesthetised with urethane, and the measurement of inhibition of histamine-induced tachycardia in the isolated guinea pig right atrium, are detailed in U.S. Pat. No. 4,385,058.

Assay [2] relates to histamine H2 -receptors. The assay is described as follows: inhibition of histamine-induced tachycardia in the isolated guinea pig right atrium.
Description: as §1

T1 sequence (P25102 whole entry, the tested form may be a part): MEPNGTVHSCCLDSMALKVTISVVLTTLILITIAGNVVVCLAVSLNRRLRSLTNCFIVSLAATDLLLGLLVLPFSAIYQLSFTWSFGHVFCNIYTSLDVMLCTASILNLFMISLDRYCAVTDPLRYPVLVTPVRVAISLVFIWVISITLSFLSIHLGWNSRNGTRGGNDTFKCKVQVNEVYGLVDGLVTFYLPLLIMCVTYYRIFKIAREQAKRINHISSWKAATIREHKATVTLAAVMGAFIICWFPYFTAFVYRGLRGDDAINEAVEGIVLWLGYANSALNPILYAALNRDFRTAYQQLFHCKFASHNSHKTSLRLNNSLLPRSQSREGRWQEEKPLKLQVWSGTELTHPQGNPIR

Regarding `O=c1[nH]c(CCCOc2cccc(CN3CCCCC3)c2)ncc1OCc1ccccc1` [Example 1, 2-[3-[3-(Piperidinomethyl)phenoxy]propyl]-5-benzyloxypyrimidin-4-one], the ED50 on histamine H2 -receptors [1] was less than 0.1 µmol/kg. Moreover, in the assay on histamine H2 -receptors [2], the “pA2 values in the guinea pig atrium test” value is reported as “more than seven”.
The like results for `COc1cnc(NCCCOc2cccc(CN3CCCCC3)c2)[nH]c1=O` [Example 5, 2-[3-[3-(Piperidinomethyl)phenoxy]propylamino]-5-methoxypyrimidin-4-one] were, in that order, less than 0.1 µmol/kg and “more than seven”.

For orientation: ED50 means the dose at which the effect has come halfway, by size or by number of responders.
